For one test, the target named is T1, CYP3A4 (Homo sapiens, UniProt P08684).
T1 construct: human liver microsomes were used as the CYP450 enzyme source; from tissue; host or cells: human liver microsomes
In words: Inhibition of hepatic drug-metabolizing enzymes in human liver microsomes (substrates midazolam and testosterone). The test is classed as in vitro ADME.

Test [1] concerns NCI-H358 non-small cell lung cancer cells. Kind of test: Inhibition of NCI-H358 cell proliferation (CellTiter-Glo 3D, 7 days). It counts as cell-based. To be noted: Homo sapiens, NCI-H358, 168 h, 3D microspheres, read-out: Inhibitory activity against NCI-H358 cell proliferation (IC50). The method, boiled down: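 NCI-H358 cells at 2000/well in ultra-low attachment plates grown overnight into spheroids, then exposed to 8-point 5-fold compound dilutions in RPMI-1640/10% FBS for 7 days at 37 °C. Viability by CellTiter-Glo 3D luminescence; inhibition relative to no-inhibitor and cell-free controls.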

The next test has as its target T2, CYP2C19 (Homo sapiens, UniProt P33261).
T2 construct: human liver microsomes were used as the CYP450 enzyme source; from tissue; host or cells: human liver microsomes
In words: Inhibition of hepatic drug-metabolizing enzymes in human liver microsomes. It counts as in vitro ADME. The note with it: human liver microsomes; read-out: Inhibitory activity on drug-metabolizing enzymes (IC50, µM) CYP2C19.

In another test the target is T3, CYP2C9 (Homo sapiens, UniProt P11712).
T3 construct: human liver microsomes were used as the CYP450 enzyme source; from tissue; host or cells: human liver microsomes
T3 sequence (P11712 whole entry): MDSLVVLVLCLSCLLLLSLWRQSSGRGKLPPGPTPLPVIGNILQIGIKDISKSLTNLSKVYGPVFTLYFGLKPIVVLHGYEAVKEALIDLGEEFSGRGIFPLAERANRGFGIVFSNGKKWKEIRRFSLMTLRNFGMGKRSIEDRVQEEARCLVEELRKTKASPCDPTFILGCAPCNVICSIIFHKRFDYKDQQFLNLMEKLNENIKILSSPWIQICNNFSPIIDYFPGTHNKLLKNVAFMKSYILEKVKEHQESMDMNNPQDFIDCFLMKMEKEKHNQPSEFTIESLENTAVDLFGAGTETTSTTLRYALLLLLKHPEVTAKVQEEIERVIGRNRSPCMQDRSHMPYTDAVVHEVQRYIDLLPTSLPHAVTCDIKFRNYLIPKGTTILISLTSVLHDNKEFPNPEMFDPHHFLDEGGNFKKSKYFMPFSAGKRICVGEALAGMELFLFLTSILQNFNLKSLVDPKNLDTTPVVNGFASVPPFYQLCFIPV
The test is described as above. The test is classed as in vitro ADME. To be noted: human liver microsomes; read-out: Inhibitory activity on drug-metabolizing enzymes (IC50, µM) CYP2C9.

Where two headings read alike, the source gives them in different places.

T1 sequence (P08684 whole entry): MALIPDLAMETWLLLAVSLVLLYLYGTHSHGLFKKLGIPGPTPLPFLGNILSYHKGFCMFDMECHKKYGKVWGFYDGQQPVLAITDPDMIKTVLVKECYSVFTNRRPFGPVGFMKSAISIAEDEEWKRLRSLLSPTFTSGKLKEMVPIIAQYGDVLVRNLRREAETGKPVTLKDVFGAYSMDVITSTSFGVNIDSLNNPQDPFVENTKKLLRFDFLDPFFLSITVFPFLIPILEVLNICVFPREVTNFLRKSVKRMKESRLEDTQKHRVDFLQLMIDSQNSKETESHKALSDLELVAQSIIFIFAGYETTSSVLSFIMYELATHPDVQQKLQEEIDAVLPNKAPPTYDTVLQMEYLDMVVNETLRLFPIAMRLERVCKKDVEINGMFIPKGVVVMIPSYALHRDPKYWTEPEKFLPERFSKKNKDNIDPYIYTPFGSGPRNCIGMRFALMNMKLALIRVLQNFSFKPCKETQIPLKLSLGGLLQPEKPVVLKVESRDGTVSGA
T2 sequence (P33261 whole entry): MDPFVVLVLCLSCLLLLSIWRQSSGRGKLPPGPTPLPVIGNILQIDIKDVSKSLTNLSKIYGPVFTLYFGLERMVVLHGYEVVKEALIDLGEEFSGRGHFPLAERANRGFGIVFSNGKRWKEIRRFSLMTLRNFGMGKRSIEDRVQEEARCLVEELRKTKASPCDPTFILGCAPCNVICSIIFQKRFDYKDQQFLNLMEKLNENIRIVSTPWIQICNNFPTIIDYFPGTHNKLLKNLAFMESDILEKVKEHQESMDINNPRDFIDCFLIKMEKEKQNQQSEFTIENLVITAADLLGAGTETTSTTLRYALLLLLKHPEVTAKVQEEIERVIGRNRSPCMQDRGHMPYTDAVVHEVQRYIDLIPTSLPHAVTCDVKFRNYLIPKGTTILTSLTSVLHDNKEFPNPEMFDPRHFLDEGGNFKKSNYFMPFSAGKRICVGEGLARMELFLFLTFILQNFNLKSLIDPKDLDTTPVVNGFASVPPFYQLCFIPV

For the compound `C[C@@H](Nc1nnc(N2CCN(C(C)(C)C)CC2)c2cc(=O)n(C3(C)CC3)cc12)c1cccc(C(F)F)c1F.O=CO` [Example 222, (R)-1-(4-(tert-butyl)piperazin-1-yl)-4-((1-(3-(difluoromethyl)-2-fluorophenyl)ethyl)amino)-6-(1-methylcyclopropyl) pyrido[3,4-d]pyridazin-7(6H)-one formate], the IC50 at CYP3A4 (substrate midazolam, read-out: Inhibitory activity on drug-metabolizing enzymes (IC50, µM) CYP3A4-M) was more than 10 µM; on CYP3A4 (substrate testosterone, read-out: Inhibitory activity on drug-metabolizing enzymes (IC50, µM) CYP3A4-T), more than 10 µM; in test [1], 0.0334 µM; at CYP2C19, more than 10 µM; on CYP2C9, more than 10 µM.

The values above are taken from patent EP4722213A1, “NITROGEN-CONTAINING FUNCTIONAL GROUP-SUBSTITUTED PYRIDAZINOPYRIDONE DERIVATIVE AND USE THEREOF” (Sichuan Huiyu Pharmaceutical Co., Ltd., priority 2023, dated 2024).
